Measured values reported in the kinase profiling compilation of Christmann-Franck et al. (2016).

How the values were obtained:
Experiment in all cases: radiometric filter-binding kinase assay
[1] = system: AKT2 (human), P31751 [S474D]
BTK (human) = BTK (human) (UniProt Q06187)
CDK2 CCNA2 (human) = CDK2 CCNA2 (human) (UniProt P20248+P24941)
CHEK2 (human) = CHEK2 (human) (UniProt O96017)
CSK (human) = CSK (human) (UniProt P41240)
CSNK1D (human) = CSNK1D (human) (UniProt P48730)
EPHA4 (human) = EPHA4 (human) (UniProt P54764)
EPHA4 (human), sequence (P54764 whole entry, looked up): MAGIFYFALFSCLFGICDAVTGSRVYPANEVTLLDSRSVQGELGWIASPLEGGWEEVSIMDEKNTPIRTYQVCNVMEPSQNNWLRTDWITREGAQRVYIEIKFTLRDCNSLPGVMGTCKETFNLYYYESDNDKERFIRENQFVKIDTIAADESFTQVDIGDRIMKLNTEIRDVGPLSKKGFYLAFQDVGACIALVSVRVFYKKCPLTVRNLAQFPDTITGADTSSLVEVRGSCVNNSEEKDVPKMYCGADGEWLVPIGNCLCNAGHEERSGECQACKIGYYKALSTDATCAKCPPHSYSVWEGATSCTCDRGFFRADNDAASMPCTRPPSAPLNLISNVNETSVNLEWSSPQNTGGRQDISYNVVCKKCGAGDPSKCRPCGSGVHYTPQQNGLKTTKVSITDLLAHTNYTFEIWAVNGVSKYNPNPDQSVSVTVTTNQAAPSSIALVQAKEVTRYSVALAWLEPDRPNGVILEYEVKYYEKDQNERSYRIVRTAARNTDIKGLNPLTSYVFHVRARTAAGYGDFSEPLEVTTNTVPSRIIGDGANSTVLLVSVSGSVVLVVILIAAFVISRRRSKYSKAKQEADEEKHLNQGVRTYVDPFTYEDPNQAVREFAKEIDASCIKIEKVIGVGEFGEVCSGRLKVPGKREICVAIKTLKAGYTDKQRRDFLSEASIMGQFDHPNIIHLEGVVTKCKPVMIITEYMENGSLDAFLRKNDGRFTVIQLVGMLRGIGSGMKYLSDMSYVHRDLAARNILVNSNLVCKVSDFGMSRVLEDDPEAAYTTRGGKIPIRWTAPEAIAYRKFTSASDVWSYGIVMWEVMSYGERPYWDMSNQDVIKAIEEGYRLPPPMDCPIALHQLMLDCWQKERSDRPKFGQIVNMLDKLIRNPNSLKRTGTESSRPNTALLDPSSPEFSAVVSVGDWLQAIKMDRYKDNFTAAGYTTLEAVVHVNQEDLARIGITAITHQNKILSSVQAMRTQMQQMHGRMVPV

EPHB1 (human) = EPHB1 (human) (UniProt P54762)
EPHB1 (human), sequence (P54762 whole entry, looked up): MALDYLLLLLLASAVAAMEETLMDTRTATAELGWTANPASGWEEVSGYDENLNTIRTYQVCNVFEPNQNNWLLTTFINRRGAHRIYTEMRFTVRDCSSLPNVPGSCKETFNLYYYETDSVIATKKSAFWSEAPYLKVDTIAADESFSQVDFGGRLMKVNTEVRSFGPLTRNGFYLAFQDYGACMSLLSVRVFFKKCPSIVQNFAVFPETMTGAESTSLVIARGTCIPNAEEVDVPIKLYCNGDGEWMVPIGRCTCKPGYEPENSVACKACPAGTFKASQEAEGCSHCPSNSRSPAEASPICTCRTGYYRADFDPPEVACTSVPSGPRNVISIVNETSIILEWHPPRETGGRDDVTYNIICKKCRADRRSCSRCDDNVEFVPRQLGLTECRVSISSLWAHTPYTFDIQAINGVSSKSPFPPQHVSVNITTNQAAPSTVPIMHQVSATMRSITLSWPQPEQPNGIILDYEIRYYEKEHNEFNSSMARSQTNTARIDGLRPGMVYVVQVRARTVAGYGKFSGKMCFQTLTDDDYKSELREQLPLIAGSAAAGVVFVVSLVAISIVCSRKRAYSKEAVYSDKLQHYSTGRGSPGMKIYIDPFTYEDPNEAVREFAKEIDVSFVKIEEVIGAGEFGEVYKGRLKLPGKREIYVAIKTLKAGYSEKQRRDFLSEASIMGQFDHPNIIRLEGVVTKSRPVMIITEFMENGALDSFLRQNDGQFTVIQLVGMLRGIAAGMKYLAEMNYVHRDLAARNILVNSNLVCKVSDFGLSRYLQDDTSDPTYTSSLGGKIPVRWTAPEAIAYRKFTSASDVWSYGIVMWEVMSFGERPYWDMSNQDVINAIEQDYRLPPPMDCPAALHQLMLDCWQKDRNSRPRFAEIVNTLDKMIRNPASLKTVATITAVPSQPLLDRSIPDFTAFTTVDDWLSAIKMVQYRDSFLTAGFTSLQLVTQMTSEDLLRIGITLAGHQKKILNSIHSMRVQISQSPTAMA

EPHB4 (human) = EPHB4 (human) (UniProt P54760)
FLT1 (human) = FLT1 (human) (UniProt P17948)
IKBKB (human) = IKBKB (human) (UniProt O14920)
IKBKE (human) = IKBKE (human) (UniProt Q14164)
INSRR (human) = INSRR (human) (UniProt P14616)
MAP2K1 (human) = MAP2K1 (human) (UniProt Q02750)
MAPK1 (human) = MAPK1 (human) (UniProt P28482)
MAPK14 (human) = MAPK14 (human) (UniProt Q16539)
MAPK15 (human) = MAPK15 (human) (UniProt Q8TD08)
MAPK3 (human) = MAPK3 (human) (UniProt P27361)
MAPKAPK3 (human) = MAPKAPK3 (human) (UniProt Q16644)
MKNK2 (human) = MKNK2 (human) (UniProt Q9HBH9)
NEK2 (human) = NEK2 (human) (UniProt P51955)
NEK6 (human) = NEK6 (human) (UniProt Q9HC98)
PAK7 (human) = PAK7 (human) (UniProt Q9P286)
PIM2 (human) = PIM2 (human) (UniProt Q9P1W9)
PLK1 (human) = PLK1 (human) (UniProt P53350)
PLK1 (human), sequence (P53350 whole entry, looked up): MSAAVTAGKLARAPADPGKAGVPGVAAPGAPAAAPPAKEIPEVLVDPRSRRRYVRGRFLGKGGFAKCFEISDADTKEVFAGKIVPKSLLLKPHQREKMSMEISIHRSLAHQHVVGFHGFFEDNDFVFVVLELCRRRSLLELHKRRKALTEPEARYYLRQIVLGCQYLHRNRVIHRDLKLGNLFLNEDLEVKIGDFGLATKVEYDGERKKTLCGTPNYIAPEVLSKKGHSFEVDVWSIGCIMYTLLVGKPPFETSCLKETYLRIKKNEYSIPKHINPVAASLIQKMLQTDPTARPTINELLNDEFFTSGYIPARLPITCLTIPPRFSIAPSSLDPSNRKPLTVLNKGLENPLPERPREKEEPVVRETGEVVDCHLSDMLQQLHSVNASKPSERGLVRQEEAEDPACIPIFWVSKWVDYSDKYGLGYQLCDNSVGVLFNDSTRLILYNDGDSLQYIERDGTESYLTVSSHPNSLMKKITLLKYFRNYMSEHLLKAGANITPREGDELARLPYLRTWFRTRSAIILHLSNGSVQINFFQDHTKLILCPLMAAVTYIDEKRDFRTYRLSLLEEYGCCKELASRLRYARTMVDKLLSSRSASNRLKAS

PRKAA1 or PRKAA2 (rat) = conditions: accession and sequence are those of the human protein
PRKACA (human) = PRKACA (human) (UniProt P17612)
RIPK2 (human) = RIPK2 (human) (UniProt O43353)
RPS6KA1 KD1 KD2 (human) = RPS6KA1 KD1 KD2 (human) (UniProt Q15418)
RPS6KA3 KD1 KD2 (human) = RPS6KA3 KD1 KD2 (human) (UniProt P51812)
RPS6KA5 KD1 KD2 (human) = RPS6KA5 KD1 KD2 (human) (UniProt O75582)
[2] = system: RPS6KB1 (human), P23443 [T412E]
SRC (human) = SRC (human) (UniProt P12931)
SYK (human) = SYK (human) (UniProt P43405)
TTK (human) = TTK (human) (UniProt P33981)
TTK (human), sequence (P33981 whole entry, looked up): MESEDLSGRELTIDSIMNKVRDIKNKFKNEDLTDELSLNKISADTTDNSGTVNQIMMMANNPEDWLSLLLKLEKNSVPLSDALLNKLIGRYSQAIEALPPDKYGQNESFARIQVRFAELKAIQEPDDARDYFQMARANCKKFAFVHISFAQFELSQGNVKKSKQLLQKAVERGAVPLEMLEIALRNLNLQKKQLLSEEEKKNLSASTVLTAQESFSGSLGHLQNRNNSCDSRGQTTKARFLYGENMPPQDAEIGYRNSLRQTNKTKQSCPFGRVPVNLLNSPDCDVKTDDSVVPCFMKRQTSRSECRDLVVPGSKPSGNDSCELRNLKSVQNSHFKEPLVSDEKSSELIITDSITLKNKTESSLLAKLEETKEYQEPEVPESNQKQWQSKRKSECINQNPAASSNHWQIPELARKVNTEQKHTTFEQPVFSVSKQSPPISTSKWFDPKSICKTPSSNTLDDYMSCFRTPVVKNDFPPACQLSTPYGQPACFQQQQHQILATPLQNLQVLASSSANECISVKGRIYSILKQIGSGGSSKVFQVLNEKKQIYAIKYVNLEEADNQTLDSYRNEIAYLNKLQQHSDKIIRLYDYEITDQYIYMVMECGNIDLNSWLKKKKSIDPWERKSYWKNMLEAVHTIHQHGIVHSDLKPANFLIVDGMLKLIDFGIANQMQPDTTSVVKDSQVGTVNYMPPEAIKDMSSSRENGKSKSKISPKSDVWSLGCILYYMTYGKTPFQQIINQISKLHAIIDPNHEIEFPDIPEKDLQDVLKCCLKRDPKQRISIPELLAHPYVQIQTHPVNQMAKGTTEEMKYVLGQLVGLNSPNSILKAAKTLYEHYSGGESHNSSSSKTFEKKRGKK

CSNK1D (human), sequence (P48730 whole entry, looked up): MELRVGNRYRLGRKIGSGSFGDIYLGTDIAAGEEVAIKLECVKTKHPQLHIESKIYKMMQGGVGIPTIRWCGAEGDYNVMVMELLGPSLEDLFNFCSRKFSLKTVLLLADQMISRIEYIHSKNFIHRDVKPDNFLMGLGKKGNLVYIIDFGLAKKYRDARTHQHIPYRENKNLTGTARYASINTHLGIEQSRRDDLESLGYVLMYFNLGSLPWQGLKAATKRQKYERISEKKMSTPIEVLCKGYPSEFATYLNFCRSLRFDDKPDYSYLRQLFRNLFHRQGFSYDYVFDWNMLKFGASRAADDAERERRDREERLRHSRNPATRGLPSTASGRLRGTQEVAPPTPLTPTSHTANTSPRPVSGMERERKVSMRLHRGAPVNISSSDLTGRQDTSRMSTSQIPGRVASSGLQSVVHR
BTK (human), sequence (Q06187 whole entry, looked up): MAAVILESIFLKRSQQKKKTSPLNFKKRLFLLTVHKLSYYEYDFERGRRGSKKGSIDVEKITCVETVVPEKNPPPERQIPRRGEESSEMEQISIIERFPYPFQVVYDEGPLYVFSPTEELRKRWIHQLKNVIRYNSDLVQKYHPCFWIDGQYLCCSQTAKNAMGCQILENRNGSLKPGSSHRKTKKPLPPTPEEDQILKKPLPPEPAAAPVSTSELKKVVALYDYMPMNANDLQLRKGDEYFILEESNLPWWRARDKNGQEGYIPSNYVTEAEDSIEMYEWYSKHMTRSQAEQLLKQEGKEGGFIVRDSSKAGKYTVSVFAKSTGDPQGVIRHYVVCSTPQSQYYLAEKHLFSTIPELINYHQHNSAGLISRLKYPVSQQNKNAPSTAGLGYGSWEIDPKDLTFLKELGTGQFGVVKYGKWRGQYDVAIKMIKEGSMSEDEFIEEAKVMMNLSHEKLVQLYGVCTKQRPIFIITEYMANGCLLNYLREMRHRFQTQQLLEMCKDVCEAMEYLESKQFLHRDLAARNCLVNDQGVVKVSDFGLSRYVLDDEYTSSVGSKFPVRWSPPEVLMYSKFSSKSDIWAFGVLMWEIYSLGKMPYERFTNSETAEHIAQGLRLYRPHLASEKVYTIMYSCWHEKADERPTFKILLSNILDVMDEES
CHEK2 (human), sequence (O96017 whole entry, looked up): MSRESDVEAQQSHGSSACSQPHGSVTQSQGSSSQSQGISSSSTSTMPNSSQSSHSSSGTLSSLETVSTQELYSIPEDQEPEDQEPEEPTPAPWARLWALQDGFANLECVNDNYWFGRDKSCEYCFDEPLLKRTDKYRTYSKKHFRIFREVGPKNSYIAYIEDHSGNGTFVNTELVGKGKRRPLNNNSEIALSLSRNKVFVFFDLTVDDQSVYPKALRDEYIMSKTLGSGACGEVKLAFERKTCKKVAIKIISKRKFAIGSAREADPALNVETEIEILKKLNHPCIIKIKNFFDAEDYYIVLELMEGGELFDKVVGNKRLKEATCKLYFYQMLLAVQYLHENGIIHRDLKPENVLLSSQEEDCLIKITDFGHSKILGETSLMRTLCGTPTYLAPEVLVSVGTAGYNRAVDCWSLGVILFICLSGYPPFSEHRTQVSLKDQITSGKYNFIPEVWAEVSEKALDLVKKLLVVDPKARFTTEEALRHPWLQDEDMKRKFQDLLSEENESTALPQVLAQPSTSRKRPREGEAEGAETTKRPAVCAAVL

O=C(NOCC(O)CO)c1ccc(F)c(F)c1Nc1ccc(I)cc1Cl (stereo unspecified)
residual activity ([1]; compound 1.0 µM): 97%
residual activity ([1]; compound 10.0 µM): 90%
residual activity (BTK (human); compound 1.0 µM): 102%
residual activity (BTK (human); compound 10.0 µM): 97%
residual activity (CDK2 CCNA2 (human); compound 1.0 µM): 95%
residual activity (CDK2 CCNA2 (human); compound 10.0 µM): 97%
residual activity (CHEK2 (human); compound 1.0 µM): 104%
residual activity (CHEK2 (human); compound 10.0 µM): 93%
residual activity (CSK (human); compound 1.0 µM): 89%
residual activity (CSK (human); compound 10.0 µM): 88%
residual activity (CSNK1D (human); compound 1.0 µM): 96%
residual activity (CSNK1D (human); compound 10.0 µM): 97%
residual activity (EPHA4 (human); compound 1.0 µM): 97%
residual activity (EPHA4 (human); compound 10.0 µM): 100%
residual activity (EPHB1 (human); compound 1.0 µM): 107%
residual activity (EPHB1 (human); compound 10.0 µM): 92%
residual activity (EPHB4 (human); compound 1.0 µM): 98%
residual activity (EPHB4 (human); compound 10.0 µM): 86%
residual activity (FLT1 (human); compound 1.0 µM): 98%
residual activity (FLT1 (human); compound 10.0 µM): 42%
residual activity (IKBKB (human); compound 1.0 µM): 78%
residual activity (IKBKB (human); compound 10.0 µM): 89%
residual activity (IKBKE (human); compound 1.0 µM): 102%
residual activity (IKBKE (human); compound 10.0 µM): 103%
residual activity (INSRR (human); compound 1.0 µM): 84%
residual activity (MAP2K1 (human); compound 1.0 µM): 36%
residual activity (MAP2K1 (human); compound 10.0 µM): 3%
residual activity (MAPK1 (human); compound 1.0 µM): 83%
residual activity (MAPK1 (human); compound 10.0 µM): 79%
residual activity (MAPK14 (human); compound 1.0 µM): 102%
residual activity (MAPK14 (human); compound 10.0 µM): 97%
residual activity (MAPK15 (human); compound 1.0 µM): 95%
residual activity (MAPK15 (human); compound 10.0 µM): 98%
residual activity (MAPK3 (human); compound 1.0 µM): 100%
residual activity (MAPK3 (human); compound 10.0 µM): 101%
residual activity (MAPKAPK3 (human); compound 1.0 µM): 94%
residual activity (MAPKAPK3 (human); compound 10.0 µM): 77%
residual activity (MKNK2 (human); compound 1.0 µM): 89%
residual activity (MKNK2 (human); compound 10.0 µM): 90%
residual activity (NEK2 (human); compound 1.0 µM): 98%
residual activity (NEK2 (human); compound 10.0 µM): 94%
residual activity (NEK6 (human); compound 1.0 µM): 101%
residual activity (NEK6 (human); compound 10.0 µM): 103%
residual activity (PAK7 (human); compound 1.0 µM): 102%
residual activity (PAK7 (human); compound 10.0 µM): 86%
residual activity (PIM2 (human); compound 1.0 µM): 91%
residual activity (PIM2 (human); compound 10.0 µM): 93%
residual activity (PLK1 (human); compound 1.0 µM): 97%
residual activity (PLK1 (human); compound 10.0 µM): 93%
residual activity (PRKAA1 or PRKAA2 (rat); compound 1.0 µM): 111%
residual activity (PRKAA1 or PRKAA2 (rat); compound 10.0 µM): 120%
residual activity (PRKACA (human); compound 1.0 µM): 94%
residual activity (PRKACA (human); compound 10.0 µM): 103%
residual activity (RIPK2 (human); compound 1.0 µM): 86%
residual activity (RIPK2 (human); compound 10.0 µM): 84%
residual activity (RPS6KA1 KD1 KD2 (human); compound 1.0 µM): 122%
residual activity (RPS6KA1 KD1 KD2 (human); compound 10.0 µM): 98%
residual activity (RPS6KA3 KD1 KD2 (human); compound 1.0 µM): 98%
residual activity (RPS6KA3 KD1 KD2 (human); compound 10.0 µM): 89%
residual activity (RPS6KA5 KD1 KD2 (human); compound 1.0 µM): 98%
residual activity (RPS6KA5 KD1 KD2 (human); compound 10.0 µM): 96%
residual activity ([2]; compound 1.0 µM): 94%
residual activity ([2]; compound 10.0 µM): 80%
residual activity (SRC (human); compound 1.0 µM): 124%
residual activity (SRC (human); compound 10.0 µM): 72%
residual activity (SYK (human); compound 10.0 µM): 77%
residual activity (TTK (human); compound 1.0 µM): 105%
residual activity (TTK (human); compound 10.0 µM): 98%

CN(C)C/C=C/C(=O)Nc1cccc(C(=O)Nc2ccc(Nc3nccc(-c4cccnc4)n3)cc2)c1
residual activity ([1]; compound 0.1 µM): 93%
residual activity ([1]; compound 1.0 µM): 106%
residual activity (BTK (human); compound 1.0 µM): 85%
residual activity (CDK2 CCNA2 (human); compound 0.1 µM): 85%
residual activity (CDK2 CCNA2 (human); compound 1.0 µM): 72%
residual activity (CHEK2 (human); compound 0.1 µM): 89%
residual activity (CHEK2 (human); compound 1.0 µM): 73%
residual activity (CSK (human); compound 1.0 µM): 103%
residual activity (CSNK1D (human); compound 0.1 µM): 63%
residual activity (CSNK1D (human); compound 1.0 µM): 33%
residual activity (EPHA4 (human); compound 0.1 µM): 92%
residual activity (EPHA4 (human); compound 1.0 µM): 105%
residual activity (EPHB1 (human); compound 0.1 µM): 93%
residual activity (EPHB1 (human); compound 1.0 µM): 86%
residual activity (EPHB4 (human); compound 0.1 µM): 105%
residual activity (EPHB4 (human); compound 1.0 µM): 109%
residual activity (FLT1 (human); compound 0.1 µM): 59%
residual activity (FLT1 (human); compound 1.0 µM): 32%
residual activity (IKBKB (human); compound 0.1 µM): 76%
residual activity (IKBKB (human); compound 1.0 µM): 63%
residual activity (IKBKE (human); compound 0.1 µM): 97%
residual activity (IKBKE (human); compound 1.0 µM): 98%
residual activity (INSRR (human); compound 0.1 µM): 72%
residual activity (INSRR (human); compound 1.0 µM): 64%
residual activity (MAP2K1 (human); compound 0.1 µM): 98%
residual activity (MAP2K1 (human); compound 1.0 µM): 113%
residual activity (MAPK1 (human); compound 0.1 µM): 99%
residual activity (MAPK1 (human); compound 1.0 µM): 114%
residual activity (MAPK14 (human); compound 0.1 µM): 98%
residual activity (MAPK14 (human); compound 1.0 µM): 113%
residual activity (MAPK15 (human); compound 0.1 µM): 46%
residual activity (MAPK15 (human); compound 1.0 µM): 20%
residual activity (MAPK3 (human); compound 0.1 µM): 110%
residual activity (MAPK3 (human); compound 1.0 µM): 109%
residual activity (MAPKAPK3 (human); compound 0.1 µM): 104%
residual activity (MAPKAPK3 (human); compound 1.0 µM): 101%
residual activity (MKNK2 (human); compound 0.1 µM): 92%
residual activity (NEK2 (human); compound 0.1 µM): 93%
residual activity (NEK6 (human); compound 0.1 µM): 88%
residual activity (NEK6 (human); compound 1.0 µM): 96%
residual activity (PAK7 (human); compound 0.1 µM): 89%
residual activity (PAK7 (human); compound 1.0 µM): 91%
residual activity (PIM2 (human); compound 0.1 µM): 96%
residual activity (PIM2 (human); compound 1.0 µM): 102%
residual activity (PLK1 (human); compound 0.1 µM): 91%
residual activity (PLK1 (human); compound 1.0 µM): 106%
residual activity (PRKAA1 or PRKAA2 (rat); compound 0.1 µM): 92%
residual activity (PRKAA1 or PRKAA2 (rat); compound 1.0 µM): 87%
residual activity (PRKACA (human); compound 0.1 µM): 97%
residual activity (PRKACA (human); compound 1.0 µM): 108%
residual activity (RIPK2 (human); compound 1.0 µM): 42%
residual activity (RPS6KA3 KD1 KD2 (human); compound 0.1 µM): 80%
residual activity (RPS6KA3 KD1 KD2 (human); compound 1.0 µM): 80%
residual activity (RPS6KA5 KD1 KD2 (human); compound 0.1 µM): 88%
residual activity (RPS6KA5 KD1 KD2 (human); compound 1.0 µM): 91%
residual activity ([2]; compound 0.1 µM): 88%
residual activity ([2]; compound 1.0 µM): 112%
residual activity (SRC (human); compound 0.1 µM): 93%
residual activity (SRC (human); compound 1.0 µM): 72%
residual activity (SYK (human); compound 0.1 µM): 89%
residual activity (SYK (human); compound 1.0 µM): 72%
residual activity (TTK (human); compound 0.1 µM): 83%
residual activity (TTK (human); compound 1.0 µM): 77%
